The text below walks through data of PubChem BioAssay (NCI).

Several values for one entry are separate records, joined by “and”; a condition that tells them apart may be missing. Equal entries are not always repeated.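 Protocol summary: plate cells (96-well), add compound at 5 concentrations, incubate 48 h, interpolate endpoints linearly. GI50: concentration for 50% inhibition of growth. Definition used: TGI = concentration required for complete inhibition of growth.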

Some test systems named below: RXF 393 renal; MDA-MB-231 breast; ACHN renal; HT29 colon; KM12 colon; SR leukemia; BT-549 breast; MALME-3M melanoma; OVCAR-5 ovarian; SK-MEL-2 melanoma.
What all share (assay): inhibition of tumour cell growth, NCI panel, 48 h

As for `C[C@@H]1COCCN1c1cc(-c2ccnn2C)c2ccnc(-c3ccn[nH]3)c2n1`, the GI50 in the assay on RXF 393 renal was 0.0236 µM and 0.0851 µM; with MDA-MB-231 breast it was 0.223 µM and 0.386 µM; in the assay with ACHN renal, 0.0417 µM; in the assay on HT29 colon, 0.237 µM and 0.389 µM; in the assay with KM12 colon it was 0.176 µM and 0.171 µM; in the assay on SR leukemia, 0.0241 µM and 0.103 µM. Moreover, the GI50 with BT-549 breast was 0.0481 µM and 0.0691 µM; in the assay with MALME-3M melanoma, 0.179 µM and 0.273 µM; with OVCAR-5 ovarian, 0.103 µM and 0.193 µM; in the assay on SK-MEL-2 melanoma, 0.064 µM and 0.161 µM. Further, the TGI in the assay on RXF 393 renal was 0.0776 µM and 0.497 µM; in the assay on MDA-MB-231 breast, 10.7 µM and > 69.9 µM; with ACHN renal, 0.596 µM; with HT29 colon, 36.4 µM and > 100 µM; in the assay on KM12 colon it was above 100 µM; in the assay on BT-549 breast, 0.876 µM and 1.76 µM. In addition, the TGI was 1.52 µM and 3.7 µM with MALME-3M melanoma; above 100 µM in the assay on OVCAR-5 ovarian; 0.734 µM and 1.85 µM in the assay on SK-MEL-2 melanoma.

As for `O=C1c2ccccc2C(=O)N1C1(C(=O)NC2(C(=O)O)CCCC2)CCCC1`, the TGI with RXF 393 renal, in the assay on MDA-MB-231 breast, with ACHN renal, with HT29 colon, in the assay with KM12 colon and in the assay with SR leukemia was above 100 µM each time. The TGI in the assay with BT-549 breast, with MALME-3M melanoma, in the assay on OVCAR-5 ovarian and in the assay with SK-MEL-2 melanoma was above 100 µM each time.

Turning to `OCc1ccc(N2CCCC2)cc1Cl`, the GI50 is 9.57 µM with RXF 393 renal; above 79.4 µM in the assay on MDA-MB-231 breast; 29.2 µM in the assay with ACHN renal; 7.9 µM in the assay on HT29 colon; above 100 µM with KM12 colon; 46.2 µM in the assay with SR leukemia. For the same compound, the GI50 is 32 µM with BT-549 breast, 27.3 µM in the assay on MALME-3M melanoma, 0.148 µM in the assay with OVCAR-5 ovarian and 12.9 µM in the assay with SK-MEL-2 melanoma. Moreover, the TGI in the assay with RXF 393 renal is 27.1 µM; in the assay with MDA-MB-231 breast, above 100 µM; in the assay with ACHN renal, above 75.3 µM; in the assay with HT29 colon, 76.4 µM; in the assay on KM12 colon, above 100 µM; in the assay with SR leukemia, above 100 µM. Besides, the TGI is above 100 µM in the assay on BT-549 breast, 73 µM with MALME-3M melanoma, 0.498 µM with OVCAR-5 ovarian and 51.5 µM with SK-MEL-2 melanoma.

With `COc1ccc2c(c1)/C(=C\c1c[nH]c3ccc(OC)cc13)C(=O)N2`, the GI50 with RXF 393 renal is 2.91 µM; in the assay with MDA-MB-231 breast it was 1.97 µM; in the assay on ACHN renal, 2.93 µM; in the assay on HT29 colon, 4.07 µM; in the assay on KM12 colon it was 0.32 µM; with SR leukemia, 2.39 µM. For the same compound, the GI50 is 2.31 µM with BT-549 breast, 8.52 µM with MALME-3M melanoma, 3.43 µM in the assay with OVCAR-5 ovarian and 2.3 µM in the assay on SK-MEL-2 melanoma. Further, the TGI in the assay on RXF 393 renal was found to be 9.6 µM; in the assay with MDA-MB-231 breast, 6.32 µM; with ACHN renal it was 12.4 µM; with HT29 colon, 14.9 µM; with KM12 colon, 10.8 µM; with SR leukemia it was 7.9 µM. In addition, the TGI was found to be 9.1 µM with BT-549 breast, 22.9 µM in the assay with MALME-3M melanoma, 13.2 µM with OVCAR-5 ovarian and 6.27 µM with SK-MEL-2 melanoma.

Consider `COc1cccc(CC(C)=C(c2ccc(OCCCN(C)C)cc2)c2ccc(OCCCN(C)C)cc2)c1`, for which the GI50 in the assay with RXF 393 renal was 0.597 µM; in the assay with MDA-MB-231 breast, 0.457 µM; in the assay on ACHN renal it was 0.501 µM; with HT29 colon it was 0.443 µM; with KM12 colon, 0.628 µM; in the assay on SR leukemia, 0.44 µM. Further, the GI50 with BT-549 breast is 3.09 µM; in the assay with MALME-3M melanoma, 0.403 µM; with OVCAR-5 ovarian, 0.707 µM; in the assay on SK-MEL-2 melanoma it was 0.601 µM. Also, the TGI in the assay on RXF 393 renal was determined as 2.57 µM; in the assay with MDA-MB-231 breast, 0.869 µM; in the assay with ACHN renal, 0.991 µM; with HT29 colon, 0.912 µM; with KM12 colon, 1.54 µM; in the assay with SR leukemia, 1.21 µM. Also, the TGI was determined as 6.42 µM in the assay with BT-549 breast, 0.774 µM in the assay on MALME-3M melanoma, 2.06 µM in the assay on OVCAR-5 ovarian and 1.65 µM with SK-MEL-2 melanoma.

Turning to `NC(=O)c1cccc(-c2cc(C(N)=O)ccc2Cl)c1`, the GI50 was 2.11 µM in the assay on RXF 393 renal; 4.52 µM in the assay on MDA-MB-231 breast; 6.46 µM in the assay on ACHN renal; 1.19 µM in the assay with HT29 colon; 1.88 µM with KM12 colon; 0.389 µM in the assay with SR leukemia. Moreover, the GI50 in the assay on BT-549 breast is 6.82 µM; with MALME-3M melanoma it was 3.98 µM; with OVCAR-5 ovarian, 4.11 µM; in the assay with SK-MEL-2 melanoma it was 5.21 µM. The TGI in the assay with RXF 393 renal is 5.26 µM; in the assay on MDA-MB-231 breast it was above 100 µM; in the assay with ACHN renal, above 100 µM; with HT29 colon, above 100 µM; in the assay with KM12 colon it was above 100 µM; in the assay on SR leukemia, 18.3 µM. The TGI in the assay with BT-549 breast, in the assay with MALME-3M melanoma, in the assay with OVCAR-5 ovarian and in the assay with SK-MEL-2 melanoma was above 100 µM each time.

For the compound `CCN(CC)C(=S)SSC(=S)N(CC)CC`, the GI50 in the assay with RXF 393 renal is 15.8 µM and 17.3 µM; in the assay on MDA-MB-231 breast it was 16.1 µM and 16.7 µM; in the assay on ACHN renal it was 19 µM and 18 µM; in the assay with HT29 colon, 16.5 µM and 16.8 µM; in the assay on KM12 colon, 14.4 µM and 13.7 µM; with SR leukemia, 0.785 µM. For the same compound, the GI50 is 19.2 µM and 19.9 µM in the assay on BT-549 breast; 18 µM and 21 µM with MALME-3M melanoma; 35.4 µM and 17.9 µM with OVCAR-5 ovarian; 26.3 µM and 82.2 µM with SK-MEL-2 melanoma. The TGI was 32.4 µM and 32.9 µM in the assay with RXF 393 renal; 32.5 µM and 34.3 µM with MDA-MB-231 breast; 36.9 µM and 34.4 µM with ACHN renal; 31.5 µM and 35.5 µM in the assay on HT29 colon; 30.7 µM and 28.2 µM in the assay on KM12 colon; 34.4 µM in the assay with SR leukemia. The TGI is 38 µM and 44.2 µM with BT-549 breast; 37.5 µM and 50 µM with MALME-3M melanoma; > 56 µM and 32.6 µM with OVCAR-5 ovarian; 71.1 µM and 297 µM in the assay with SK-MEL-2 melanoma.

In the case of `COc1ccc2c(c1)C(=O)c1c-2n(CCCN)c(=O)c2cc([N+](=O)[O-])ccc12`, the GI50 is below 0.01 µM with RXF 393 renal; 0.1 µM in the assay with MDA-MB-231 breast; 1.5 µM with KM12 colon; below 0.01 µM in the assay on SR leukemia; below 0.01 µM in the assay on BT-549 breast; 2.25 µM in the assay on MALME-3M melanoma. For the same compound, the GI50 in the assay on OVCAR-5 ovarian was below 0.01 µM; with SK-MEL-2 melanoma, 3.06 µM. Besides, the TGI in the assay on RXF 393 renal is below 0.01 µM; in the assay on MDA-MB-231 breast it was 0.227 µM; in the assay with KM12 colon, 3.46 µM; in the assay on SR leukemia, below 0.01 µM; with MALME-3M melanoma it was 7.64 µM; in the assay on OVCAR-5 ovarian, below 0.01 µM. Besides, the TGI in the assay on SK-MEL-2 melanoma was 8.53 µM.
